Results from patent publication US5707963A, “Methods of using growth inhibitory peptides” (Health Research, Incorporated, priority 1996, dated 1998).

B1: full-length transformed AFP molecule: full-length alpha-fetoprotein transformed by incubation with estradiol (E2) (protein, UniProt P02771 19-609, looked up)
Alpha-fetoprotein: RTLHRNEYGIASILDSYQCTAEISLADLATIFFAQFVQEATYKEVSKMVKDALTAIEKPTGDEQSSGCLENQLPAFLEELCHEKEILEKYGHSDCCSQSEEGRHNCFLAHKKPTPASIPLFQVPEPVTSCEAYEEDRETFMNKFIYEIARRHPFLYAPTILLWAARYDKIIPSCCKAENAVECFQTKAATVTKELRESSLLNQHACAVMKNFGTRTFQAITVTKLSQKFTKVNFTEIQKLVLDVAHVHEHCCRGDVLDCLQDGEKIMSYICSQQDTLSNKITECCKLTTLERGQCIIHAENDEKPEGLSPNLNRFLGDRDFNQFSSGEKNIFLASFVHEYSRRHPQLAVSVILRVAKGYQELLEKCFQTENPLECQDKGEEELQKYIQESQALAKRSCGLFQKLGEYYLQNAFLVAYTKKAPQLTSSELMAITRKMAATAATCCQLSEDKLLACGEGAADIIIGHLCIRHEMTPVNPGVGQCCTSSYANRRPCFSSLVVDETYVPPAFSDDKFIFHKDLCQAQGVALQTMKQEFLINLVKQKPQITEEQLEAVIADFSGLLEKCCQGQEQEVCFAEEGQKLISKTRAALGV
modifications: transformed by estradiol incubation

Key:
[1] = system: estrogen-stimulated growth of mouse uterus; format: in vivo; conditions: immature mouse uterus, 10-100 ng per mouse, peak assay point of the dilution series
Procedure: An in vivo wet weight bioassay measuring inhibition of estrogen-stimulated growth of uteri was performed. The procedure of Mizejewski et al. was used for the wet weight assay (see Mizejewski, G. J. et al. (1983); Mizejewski, G. J. et al. (1986); Mizejewski, G. J. and A. S. Warner (1989); Mizejewski, G. J. et al., "Separation of the Estrogen-Activated Growth-Regulatory Forms of Alpha-Fetoprotein in Mouse Amniotic Fluid," Biol of Reprod 42:887-898 (1990); and Allen, S.H.G. et al. (1993)).
Briefly, the synthesized powdered peptide was reconstituted in saline (1 mg/ml) to form a stock solution of the GIP. The stock solution was appropriately diluted to provide dosages of 25 to 100 ng/mouse. 0.1 ml of the appropriately diluted GIP was injected intraperitoneally into 15-18 day old Nya:NYLAR female mice. Control mice were injected with saline or other peptides, including a peptide encoded by a portion of the amino acid sequence of albumin and a random 34 amino acid peptide. 1 hour after this first injection, an estrogen challenge of 0.5 micrograms of E2 in 0.1 ml saline was given to determine the change in uterine responsiveness to E2 resulting from exposure to the first injection. 23 hours after the second injection, uteri were dissected, trimmed free of connective tissue and immediately weighed. The uterine wet weights were normalized to mouse body weight (mg uterine weight/g of body weight) to compensate for differences in body weight among litters of the same age. Percent inhibition of estrogen-stimulated uterine growth was calculated as described by Mizejewski et al. (1983).
Two separate bioassays for inhibition of estrogen-stimulated growth were used. The first was an in vivo bioassay measuring an estrogen-induced increase in wet weight of the immature mouse uterus in a 24-hour determination. Dosages of peptide fragments ranged from 10 to 100 ng, and the %inhibition given in Table 6 represents the peak assay point of the dilution series.

[2] = transformed human AFP preparations
[3] = system: estrogen-stimulated growth of mouse uterus; conditions: full-length transformed AFP, see references cited; cited from earlier work

Molecule	Percent Growth Inhibition [1]	time activity is retained [2]	inhibition of estrogen-stimulated growth [3]
SEQ ID NO:7: 3' fragment generated by cutting SEQ ID NO:1 with trypsin; 5 amino acids in length (LSEDK)	no detectable growth inhibition		
SEQ ID NO:5: 5' fragment generated by cutting the 34 amino acid peptide SEQ ID NO:1 with trypsin (HEMTPVNPGV)	38%		
B1		one week or less	20-40%
